Assay: MAESTRO-NASH: thyroid hormones at week 52
Assay type: in vivo, human

CC(C)c1cc(Oc2c(Cl)cc(-n3nc(C#N)c(=O)[nH]c3=O)cc2Cl)n[nH]c1=O [Resmetirom, 2-(3,5-dichloro-4-((5-isopropyl-6-oxo-1,6-dihydropyridazin-3-yl)oxy)phenyl)-3,5-dioxo-2,3,4,5-tetrahydro-1,2,4-triazine-6-carbonitrile]
TBG (thyroxine-treated), LS mean difference from PBO (CFB) (80 mg, Week 52): -2.6 mg/L
TBG, LS mean CFB (80 mg, Week 52): -0.32 mg/L
TBG, LS mean difference from PBO (CFB) (80 mg, Week 52): -1.9 mg/L
TSH (not on thyroxine), LS mean CFB (80 mg, Week 52): −0.23 mIU/L
TSH (not on thyroxine), LS mean difference from PBO (CFB) (80 mg, Week 52): −0.15 mIU/L
TSH (thyroxine-treated), LS mean CFB (80 mg, Week 52): −0.63 mIU/L
TSH (thyroxine-treated), LS mean difference from PBO (CFB) (80 mg, Week 52): −0.41 mIU/L
TSH, LS mean CFB (80 mg, Week 52): −0.28 mIU/L
TSH, LS mean difference from PBO (CFB) (80 mg, Week 52): −0.18 mIU/L
rT3 (not on thyroxine), LS mean CFB (80 mg, Week 52): -4.5 ng/dL
rT3 (not on thyroxine), LS mean difference from PBO (CFB) (80 mg, Week 52): -4.5 ng/dL
rT3 (thyroxine-treated), LS mean CFB (80 mg, Week 52): -5.1 ng/dL
rT3 (thyroxine-treated), LS mean difference from PBO (CFB) (80 mg, Week 52): 5.1 ng/dL
rT3, LS mean CFB (80 mg, Week 52): -4.6 ng/dL
rT3, LS mean difference from PBO (CFB) (80 mg, Week 52): -4.73 ng/dL
rT3, LS mean CFB (80 mg, week 52): 4.6 ng/dL
rT3, LS mean CFB difference from PBO (80 mg, week 52): -4.7 ng/dL
FT3 (not on thyroxine), LS mean CFB (100 mg, Week 52): -0.08 ng/L
FT3 (not on thyroxine), LS mean difference from PBO (CFB) (100 mg, Week 52): -0.06 ng/L
FT3 (thyroxine-treated), LS mean CFB (100 mg, Week 52): -0.03 ng/L
FT3 (thyroxine-treated), LS mean difference from PBO (CFB) (100 mg, Week 52): 0.01 ng/L
FT3, LS mean CFB (100 mg, Week 52): 0.08 ng/L
FT3, LS mean difference from PBO (CFB) (100 mg, Week 52): -0.05 ng/L
FT3/rT3 (not on thyroxine), LS mean CFB (100 mg, Week 52): 0.06
FT3/rT3 (not on thyroxine), LS mean difference from PBO (CFB) (100 mg, Week 52): 0.07
FT3/rT3 (thyroxine-treated), LS mean CFB (100 mg, Week 52): 0.06
FT3/rT3 (thyroxine-treated), LS mean difference from PBO (CFB) (100 mg, Week 52): 0.06
FT3/rT3, LS mean difference from PBO (CFB) (100 mg, Week 52): 0.07
FT4 (not on thyroxine), LS mean % CFB (100 mg, Week 52): −17.6%
FT4 (not on thyroxine), LS mean CFB (100 mg, Week 52): -0.21 ng/dL
FT4 (not on thyroxine), LS mean difference from PBO (% CFB) (100 mg, Week 52): 20.0%
FT4 (not on thyroxine), LS mean difference from PBO (CFB) (100 mg, Week 52): -0.23 ng/dL
FT4 (thyroxine-treated), LS mean % CFB (100 mg, Week 52): 20.6%
FT4 (thyroxine-treated), LS mean CFB (100 mg, Week 52): -0.26 ng/dL
FT4 (thyroxine-treated), LS mean difference from PBO (% CFB) (100 mg, Week 52): −24.4%
FT4 (thyroxine-treated), LS mean difference from PBO (CFB) (100 mg, Week 52): 0.29 ng/dL
FT4, LS mean % CFB (100 mg, Week 52): −18.1%
FT4, LS mean CFB (100 mg, Week 52): -0.22 ng/dL
FT4, LS mean difference from PBO (% CFB) (100 mg, Week 52): 20.7%
FT4, LS mean difference from PBO (CFB) (100 mg, Week 52): -0.24 ng/dL
TBG (not on thyroxine), LS mean CFB (100 mg, Week 52): 0.21 mg/L
TBG (not on thyroxine), LS mean difference from PBO (CFB) (100 mg, Week 52): 1.8 mg/L
TBG (thyroxine-treated), LS mean CFB (100 mg, Week 52): 3.1 mg/L
TBG (thyroxine-treated), LS mean difference from PBO (CFB) (100 mg, Week 52): 4.6 mg/L
TBG, LS mean CFB (100 mg, Week 52): -0.60 mg/L
TBG, LS mean difference from PBO (CFB) (100 mg, Week 52): -2.2 mg/L
TSH (not on thyroxine), LS mean CFB (100 mg, Week 52): −0.20 mIU/L
TSH (not on thyroxine), LS mean difference from PBO (CFB) (100 mg, Week 52): −0.12 mIU/L
TSH (thyroxine-treated), LS mean CFB (100 mg, Week 52): −0.13 mIU/L
TSH (thyroxine-treated), LS mean difference from PBO (CFB) (100 mg, Week 52): 0.09 mIU/L
TSH, LS mean CFB (100 mg, Week 52): −0.20 mIU/L
TSH, LS mean difference from PBO (CFB) (100 mg, Week 52): 0.10 mIU/L
rT3 (not on thyroxine), LS mean CFB (100 mg, Week 52): 4.9 ng/dL
rT3 (not on thyroxine), LS mean difference from PBO (CFB) (100 mg, Week 52): -5.1 ng/dL
rT3 (thyroxine-treated), LS mean CFB (100 mg, Week 52): -6.3 ng/dL
rT3 (thyroxine-treated), LS mean difference from PBO (CFB) (100 mg, Week 52): -6.3 ng/dL
rT3, LS mean CFB (100 mg, Week 52): 5.1 ng/dL
rT3, LS mean difference from PBO (CFB) (100 mg, Week 52): -5.2 ng/dL
rT3, LS mean CFB (100 mg, week 52): 5.1 ng/dL
rT3, LS mean CFB difference from PBO (100 mg, week 52): 5.2 ng/dL
effect on levels of thyrotropin or free triiodothyronine (FT3) (in vivo): no effect
reduction of prohormone free T4 (FT4) levels (independent of thyroxine-replacement status): 16 to 19%
